# In PubChem BioAssay (NCI):
#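 Method: 48-hour compound exposure of cells in 96-well plates, five concentrations, linear interpolation of endpoints. At the GI50, growth is halved. TGI denotes the concentration required for complete inhibition of growth.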
# Assays:
# Assay in all cases: DTP human tumour cell line panel, 48 h
# OVCAR-4 ovarian = system: OVCAR-4 ovarian
# SK-OV-3 ovarian = system: SK-OV-3 ovarian
# UACC-62 melanoma = system: UACC-62 melanoma
# NCI-H460 lung = system: NCI-H460 lung
# HCT-15 colon = system: HCT-15 colon
# OVCAR-5 ovarian = system: OVCAR-5 ovarian
# DLD-1 colon = system: DLD-1 colon
# DMS 273 small cell lung = system: DMS 273 small cell lung
# T-47D breast = system: T-47D breast
# PC-3 prostate = system: PC-3 prostate
SMILES,GI50 (OVCAR-4 ovarian) [µM],TGI (OVCAR-4 ovarian) [µM],GI50 (SK-OV-3 ovarian) [µM],TGI (SK-OV-3 ovarian) [µM],GI50 (UACC-62 melanoma) [µM],TGI (UACC-62 melanoma) [µM],GI50 (NCI-H460 lung) [µM],TGI (NCI-H460 lung) [µM],GI50 (HCT-15 colon) [µM],TGI (HCT-15 colon) [µM],GI50 (OVCAR-5 ovarian) [µM],TGI (OVCAR-5 ovarian) [µM],GI50 (DLD-1 colon) [µM],TGI (DLD-1 colon) [µM],GI50 (DMS 273 small cell lung) [µM],TGI (DMS 273 small cell lung) [µM],GI50 (T-47D breast) [µM],TGI (T-47D breast) [µM],GI50 (PC-3 prostate) [µM],TGI (PC-3 prostate) [µM]
C[CH2][Sn]([CH2]C)([O]C(=O)c1ccc(F)cc1)[O]C(=O)c1ccc(F)cc1,52.4,> 100,> 100,> 100,17.7,36.6,> 100,> 100,25.7,> 63,30.5,> 77.2,23.9,> 65.8,55.6,> 100,–,–,–,–
CCC[CH2][Sn]1([CH2]CCC)[S]CC[N]1S(=O)(=O)c1ccc(C)cc1,1.85,3.27,–,–,1.47,3.13,2.5,5.44,1.51,2.93,2.82,6.12,1.58,2.99,1.65,3.16,–,–,–,–
O/N=C/c1ccc(O)c(O)c1,–,> 100,–,> 100,–,> 100,–,> 100,–,> 100,–,> 100,–,> 100,–,> 100,–,–,–,–
COC(=O)CC[C@]12C[C@]13CC[C@]1(C)C4C(C)C[C@]5(CC(C)C(=O)O5)OC4CC1(C)C3CCC2C(C)(C)O (stereo not given in full),–,> 100,–,> 100,–,–,–,> 100,–,> 100,–,> 100,–,> 100,–,> 100,–,–,–,–
COc1cc2cnc3c4cc(OCc5ccccc5)ccc4ccc3c2cc1OC,–,39.8,–,56.8,–,> 100,–,> 100,–,> 100,–,> 100,–,> 100,–,–,–,–,–,–
C1=CCCC=CCC1.C[PH+](C)C.C[PH+](C)C.C[PH+](C)C.[Cl-].[Ir],67.8,> 100,> 100,> 100,32.6,> 100,77.9,> 100,> 100,> 100,> 100,> 100,> 100,> 100,–,–,–,–,–,–
C=C1C(OC(C)=O)CC(OC(C)=O)C2(C)C(OC(C)=O)C(OC(C)=O)C3=C(C)C(OC(=O)/C=C/c4ccccc4)CC(C(OC(C)=O)C12)C3(C)C (stereo not given),–,> 100,–,> 100,–,> 100,–,> 100,–,> 100,–,> 100,–,> 100,–,> 100,–,–,–,–
O=c1c2cc3ccccc3n2c(=O)c2cc3ccccc3n12,–,> 100,–,–,–,> 100,–,> 100,–,> 100,–,> 100,–,> 100,–,> 100,–,–,–,–
COC(=O)N/N=C(\C)CC(=O)Nc1ccc(Cl)cc1,–,–,–,> 100,–,> 100,–,> 100,–,–,–,> 100,–,> 100,–,–,–,–,–,–
CC1c2[nH]c3ccccc3c2CCN1O (stereo not given),–,> 100,–,> 100,–,> 100,–,–,–,> 100,–,> 100,–,> 100,–,> 100,–,–,–,–
NC(=O)c1ccc(Cl)c([N+](=O)[O-])c1,–,> 100,–,> 100,–,> 100,–,> 100,–,> 100,–,> 100,–,> 100,–,> 100,–,–,–,–
CO[C@@]1(c2ccccc2)O[C@H]2OCCC2[C@H]1c1ccc(Cl)cc1 (stereo not given in full),–,91.1,–,–,–,> 100,–,57.8,–,> 100,–,> 100,–,> 100,–,> 100,–,–,–,–
C=C1C[C@@H]2C[C@@H](C)CC(O)[C@]2(CCCN)C1O (stereo not given in full),–,> 100,–,> 100,–,> 100,–,> 100,–,–,–,> 100,–,> 100,–,> 100,–,–,–,–
COc1ccc(OC(C)C(=O)O)c2c(=O)ccccc12 (stereo not given),–,> 100,–,> 100,–,> 100,–,> 100,–,> 100,–,> 100,–,> 100,–,> 100,–,–,–,–
O=C1NC2C(O)CCCCC2C12CCCCC2 (stereo not given),–,> 100,–,> 100,–,> 100,–,> 100,–,> 100,–,> 100,–,> 100,–,> 100,–,–,–,–
CC(=O)NN1C(=O)C(Cc2ccccc2)c2ccccc21 (stereo not given),–,> 100,–,> 100,–,> 100,–,> 100,–,> 100,–,> 100,–,> 100,–,> 100,–,–,–,–
COC(=O)C1CCc2nnc(-c3ccccc3)n21 (stereo not given),–,> 100,–,–,–,> 100,–,> 100,–,> 100,–,> 100,–,> 100,–,–,–,–,–,–
c1ccc(OC2=NC3=S(S2)SC(Oc2ccccc2)=N3)cc1,–,–,–,65.2,–,37.6,–,> 100,–,43.3,–,41.9,–,35,–,85.6,–,–,–,–
CC[PH+](CC)CC.[Cl][Au],1.47,2.97,16.4,30,1.16,2.63,16.2,47.9,1.31,3.17,15.2,28.5,1.28,2.93,4.77,22.1,–,–,–,–
CC(=O)[CH-]C(=O)c1ccccc1.CC(=O)[CH-]C(=O)c1ccccc1.[O-]c1ccc2c(c1)OCO2.[O-]c1ccc2c(c1)OCO2.[Ti+4],31.8,> 100,30.1,> 100,47.5,> 100,21.1,72.6,34.4,> 100,31.9,> 100,38.3,> 100,–,–,–,–,–,–
C[C@H]1C=C2C(=O)O[C@H]3CC[C@@H](C1)[C@@]23O,–,24.4,–,22.4,–,13.2,–,19.4,–,14.6,–,12.7,–,10.7,–,–,–,–,–,–
CC(C)c1ccc(NC(=O)Cc2ccc(Nc3ncnc4cc(-c5cnn(CCN(C)C)c5)ccc34)cc2)cc1,1.51,3.05,1.61,4.81,> 10,> 10,0.19,2.33,1.55,4.08,1.44,3.28,–,–,–,–,1.38,3.73,1.31,2.92
